Measurements reported in patent US20120219636A1, “ENHANCED REMOVAL OF VIRUSES FROM FRESH PRODUCE” (THE OHIO STATE UNIVERSITY, priority 2011, published 2012).
Where two headings read alike, the source gives them in different places.

Assays:
foodborne viruses = conditions: cited from earlier work
VSV [1] = format: cell-based, vesicular stomatitis virus (VSV) Indian strain
MNV-1 [2] = test: Sanitization wash of MNV-1 inoculated fresh produce, viral survivors by plaque assay; design: species or system murine norovirus; conditions: for virus reduction: 2 min wash
VSV [3] = tested on: VSV; design: species or system vesicular stomatitis virus (VSV) Indian strain; conditions: 10,000 ppm; 37° C.; 72 hours
MNV-1 [4] = test: Transmission electron microscopy of purified MNV-1 after surfactant treatment; design: species or system murine norovirus
MNV-1 [5] = format: cell-based, murine norovirus
[6] = 200 ppm surfactant, 37° C., 72 hours

CC(=O)OO [peracetic acid]
additional reduction over tap water washing (foodborne viruses): 0.77 logs

NP40
virus reduction (VSV [1]): 10. logs | virus reduction compared with tap water or chlorine solution (MNV-1 [2]; four types of fresh produce, 50 ppm surfactant alone): increased virus reduction than did tap water or chlorine solution

Triton X-100
virus reduction (VSV [1]; [6]): 6.7 logs | additional virus reduction than that of the chlorine solution (MNV-1 [2]): ~1 log

Tween 20
virus reduction (VSV [1]; [6]): 2.7 logs

OCl [sodium hypochlorite]
additional virus reduction over tap water washing (foodborne viruses): 0.48 logs | virus reduction (foodborne viruses): less than 1 log

CCCCCCCCCCCCOS(=O)(=O)[O-].[Na+] [SDS, sodium dodecyl sulfate]
damage to VSV virus particles (electron microscopy) (VSV [3]): viral envelope was damaged and the shape of VSV was severely distorted | damage to MNV-1 virus particles (electron microscopy) (MNV-1 [4]): outer capsid of the MNV-1 was severely damaged and aggregated | virus inactivation confirmed by plaque assay (MNV-1 [5]): completely inactivated | reduction in MNV-1 titer (MNV-1 [5]; 1,000 ppm surfactant, 37° C., 72 hours): highest reduction in MNV-1 titer | virus reduction (MNV-1 [5]; 10,000 ppm surfactant, 37° C., 72 hours): almost completely inactivated | virus reduction (VSV [1]; [6]): 7.5 logs | virus reduction (VSV [1]; 200 ppm, 37° C., 4 hours): 5 logs | virus inactivation confirmed by plaque assay (VSV [1]; purified VSV, 10,000 ppm, 37° C., 72 hours): completely inactivated | enhancement of efficiency of virus reduction over traditional sanitizers (chlorine solution alone) (MNV-1 [2]; fresh produce): 100 fold | virus reduction (MNV-1 [2]; lettuce, 50 ppm surfactant alone): 2.26 logs | virus reduction (MNV-1 [2]; raspberries, 50 ppm surfactant alone): 2.63 logs | virus reduction (MNV-1 [2]; strawberries, 50 ppm surfactant alone, room temperature): 3.14 logs | virus reduction (MNV-1 [2]; strawberries, 100 ppm SDS alone): 3.41 logs | virus reduction (MNV-1 [2]; strawberries, 200 ppm SDS alone): 3.12 logs | virus reduction (MNV-1 [2]; strawberries, 1,000 ppm SDS alone): 3.51 logs
